Experimental findings from patent US7772271B2 (priority 2004, dated 2010) are described below.

Each structure is given as a SMILES string.

In general, melting point refers to the temperature of the solid-liquid transition. Compound `C[C@@H](OC(=O)Nc1ccc(-c2c(C#N)c3cc(N4CCOCC4)ccc3n2C2CCC2)cc1)c1ccc(F)cc1` [Compound 2829] had a melting point of 163 to 168 °C. Next, `CCCNC(=O)Nc1ccc(-c2c(C#N)c3ccc(O[Si](C)(C)C(C)(C)C)cc3n2CC)cc1` [Compound 1387]: 65 to 70 °C; `CCOc1ccc2c(Br)c(-c3ccc(NC(=O)OC(C)C)cc3)n(CC3CC3)c2c1` [compound 2691, [4-(3-bromo-1-cyclopropylmethyl-6-ethoxy-1H-indol-2-yl)-phenyl]-carbamic acid isopropyl ester]: 128 to 132 °C. Regarding `CS(=O)(=O)Nc1ccc(-c2c(C#N)c3ccc(C(=O)N4CCOCC4)cc3n2C2CCC2)cc1` [Compound 2897], the melting point fell in the range of 247 to 249 °C. `CCn1c(-c2ccc(NC(=O)N(C)Cc3ccccc3)cc2)c(C#N)c2ccc(OCCOC)cc21` [Compound 1384] gave a melting point of 175 to 176 °C.

As for `CCCS(=O)(=O)Nc1ccc(-c2c(C#N)c3ccc(N4CCOCC4)cc3n2CC2CC2)cc1` [Compound 2890], the melting point lay in the range of 186 to 189 °C. The result for `C[C@@H](OC(=O)Nc1ccc(-c2c(C#N)c3cc(OCC4COCO4)ccc3n2C2CCC2)cc1)C(F)(F)F` (stereo partly drawn) [Compound 2799] reads 162 to 169 °C; that for `N#Cc1c(-c2ccc(NS(=O)(=O)C3CC3)cc2)n(C2CCC2)c2cc(N3CCCCC3)ccc12` [Compound 2983], 232 to 238 °C; that for `CC(C)OC(=O)Nc1ccc(-c2c(C#N)c3ccc(N4CCOCC4)cc3n2C2CCC2)cc1` [compound 2800, [4-(3-cyano-1-cyclobutyl-6-morpholin-4-yl-1H-indol-2-yl)-phenyl]-carbamic acid isopropyl ester], 206 to 208 °C. As for `CC(C)NC(=O)Nc1ccc(-c2c(C#N)c3ccc(Oc4ncccn4)cc3n2C2CCC2)cc1C#N` [Compound 3325], the melting point fell in the range of 173 to 181 °C. The compound `CC(C)OC(=O)Nc1ccc(-c2c(C#N)c3ccc(OCC(O)CN4CCOCC4)cc3n2C2CCC2)cc1` (stereo not drawn) [Compound 1418] yielded a melting point of 183 to 185 °C. The result for `CC(C)(C)OC(=O)Nc1ccc(-c2c(C#N)c3ccc(N4CCOCC4)cc3n2C2CCC2)cc1` [Compound 2764] reads 218 to 220 °C. With `C[C@@H](OC(=O)Nc1ccc(-c2c(C#N)c3ccc(Oc4nccnc4C#N)cc3n2C2CCC2)cc1)C1CC1` [Compound 3191], the melting point is 227 to 229 °C. In the case of `CC(C)NC(=O)Nc1ccc(-c2c(C#N)c3ccc(N4CCOCC4)cc3n2C2CCC2)cc1` [Compound 2862], the melting point lay within 234 to 235 °C. The result for `C[C@@H](OC(=O)Nc1ccc(-c2c(C#N)c3ccc(OC4CCS(=O)(=O)CC4)cc3n2C2CCC2)cc1)C1CC1` [Compound 3186] reads 226 to 231 °C; that for `CCCS(=O)(=O)Nc1ccc(-c2c(C#N)c3ccc(Oc4cccnc4Cl)cc3n2C2CCC2)cc1` [Compound 2945], 173 to 175 °C; that for `N#Cc1c(-c2ccc(NS(=O)(=O)C3CC3)cc2)n(CC2CC2)c2cc(N3CCCCC3)ccc12` [Compound 2908], 191 to 194 °C. The result for `CCn1c(-c2ccc(N3CCCCCC3=O)cc2)c(C#N)c2ccc(OC(C)C)cc21` [Compound 3223] reads 250 to 251 °C. In turn, `CCn1c(-c2ccc(NC(=O)N3CCC(C)CC3)cc2)c(C#N)c2ccc(OCCOC)cc21` [Compound 1379] gave a melting point of 152 to 155 °C. `CCCS(=O)(=O)Nc1ccc(-c2c(C#N)c3ccc(Oc4nccc(C)n4)cc3n2CC2CC2)c(C)c1` [Compound 2980] registered a melting point of 167 to 170 °C.

As for `CCn1c(-c2ccc3c(c2)CCC(=O)N3)c(C#N)c2ccc(OC(C)C)cc21` [Compound 3227], the melting point is 148 to 150 °C. As to `CCn1nnc(COc2ccc3c(C#N)c(-c4ccc(NC(=O)OC(C)C)cc4)n(C4CCC4)c3c2)n1` [Compound 2667], the melting point is 184 to 190 °C. Next, `CCCS(=O)(=O)Nc1ccc(-c2c(C#N)c3ccc(Oc4ncccc4Cl)cc3n2C2CC2)cc1` [Compound 2943]: 215 to 217 °C; `CCCn1c(-c2ccc(NC(=O)NCc3ccco3)cc2)c(C#N)c2ccc(OC)cc21` [Compound 1388]: 161 to 164 °C. Next, `CC(=O)c1cccc(Nc2ccc(-c3c(C#N)c4ccc(OC5CCOCC5)cc4n3C3CCC3)cc2)c1` [Compound 3162]: 148 to 152 °C; `N#Cc1c(-c2ccc(N)cc2)n(C2CC2)c2cc(OC3CCOC3)ccc12` (stereo not drawn) [Compound 1443]: 199 to 201 °C. The compound `COc1ccc2c(F)c(-c3ccc(NC(=O)NC(C)C)cc3)n(CC3CC3)c2c1` [Compound 2277] yielded a melting point of 217 to 221 °C. The result for `Cc1ccccc1CNc1ccc(-c2c(C#N)c3ccc(OC4CCOCC4)cc3n2C2CCC2)cc1` [Compound 3121] reads 168 to 172 °C. In the case of `CC(C)(C)OC(=O)Nc1ccc(-c2c(C#N)c3ccc(OCS(C)(=O)=O)cc3n2CC2CC2)cc1` [Compound 3025], the melting point is 214 to 220 °C. As to `CCOc1ccc2c([N+](=O)[O-])c(-c3ccc(NC(=O)OC(C)C)cc3)n(CC3CC3)c2c1[N+](=O)[O-]` [Compound 3093], the melting point fell in the range of 112 to 119 °C. Next, `CCN(CC)C(=O)c1ccc2c(C#N)c(-c3ccc(NC(=O)O[C@H](C)C4CC4)cc3)n(C3CCC3)c2c1` [Compound 2272]: 166 to 168 °C; `C[C@@H](OC(=O)Nc1ccc(-c2c(C#N)c3ccc(-n4ccccc4=O)cc3n2C2CCC2)cc1)C(F)(F)F` [Compound 3316]: 244 to 245 °C; `COCCOc1ccc2c(C#N)c(-c3ccc(NC(=O)OC(C)c4ccccc4)cc3)n(C3CC3)c2c1` (stereo not drawn) [Compound 1438]: 76 to 79 °C.

As to `CCCS(=O)(=O)Nc1ccc(-c2c(C#N)c3cc(C(=O)N4CCCC4)ccc3n2C2CCC2)cc1` [Compound 3097], the melting point was 200 to 202 °C. The result for `C[C@@H](OC(=O)Nc1ccc(-c2c(C#N)c3ccc(N4CCCC4)cc3n2C2CCC2)cc1)C1CC1` [Compound 2985] reads 205 to 210 °C. Take `CCn1c(-c2ccc(NC(=O)NC(C)C)cc2)c(C#N)c2ccc(OCCOC)cc21` [Compound 1405]: the melting point was 182 to 185 °C. The result for `CC(OC(=O)Nc1ccc(-c2c(C#N)c3cc(OCCCn4cncn4)ccc3n2C2CCC2)cc1)C1CCC1` (stereo not drawn) [Compound 2730] reads 149 to 150 °C.

In the case of `CCn1c(-c2ccc(NC(=O)N(CCOC)CCOC)cc2)c(C#N)c2ccc(OCCOC)cc21` [Compound 1382], the melting point was in the range of 110 to 114 °C. In turn, `N#Cc1c(-c2ccc(NC(=S)NC3CCCC3)cc2)n(C2CCC2)c2cc(OC3CCOCC3)ccc12` [Compound 3157] yielded a melting point of 137 to 138 °C. Next, `CC(C)OC(=O)Nc1ccc(-c2c(C#N)c3cc(OCCCn4ccnc4)ccc3n2C2CCC2)cc1` [Compound 2607]: 209 to 211 °C; `COCCOc1ccc2c(C#N)c(-c3ccc(NC(=O)OC4CCC4)cc3)n(C(C)C)c2c1` [Compound 2609]: 165 to 166 °C; `CCCS(=O)(=O)Nc1ccc(-c2c(C#N)c3ccc(Oc4nccnc4C)cc3n2C2CC2)cc1` [Compound 2938]: 191 to 193 °C.
